Experimental data from ChEMBL document CHEMBL5674860, “Optimized Dual-Glo Assay to identify co-culture-induced drug vulnerabilities in 3D CRC models” (2024).

Legend:
Assay type in all cases: functional, Homo sapiens
Set-up in all cases: dose or concentration left out as unconfirmed
Colon cancer organoid [1] = assay: Optimized Dual-Glo assay to identify co-culture induced drug vulnerabilities using donated chemical probes and chemogenomics kinase set in O06 CRC organoid and F06 CAF mono and co-culture. […] Cell viability is reported both mono and co-culture models.
Colon cancer organoid [2] = assay: Optimized Dual-Glo assay to identify co-culture induced drug vulnerabilities using donated chemical probes and chemogenomics kinase set in O14 CRC organoid and F14 CAF mono and co-culture. […] Cell viability is reported both mono and co-culture models.
Colon cancer organoid [3] = assay: Optimized Dual-Glo assay to identify co-culture induced drug vulnerabilities using donated chemical probes and chemogenomics kinase set in O20 CRC organoid and F20 CAF mono and co-culture. […] Cell viability is reported both mono and co-culture models.
[4] = Culture type Co-Culture, Transduced with Lucferase2-P2A-EGFP lentivirus
[5] = Culture type Co-Culture, Transduced with Renilla-dsRed lentivirus
[6] = Culture type Mono-Culture, Transduced with Lucferase2-P2A-EGFP lentivirus
[7] = Culture type Mono-Culture, Transduced with Renilla-dsRed lentivirus

SMILES | Cell Viability (Colon cancer organoid [1]; [4]) | Cell Viability (Colon cancer organoid [1]; [5]) | Cell Viability (Colon cancer organoid [1]; [6]) | Cell Viability (Colon cancer organoid [1]; [7]) | Cell Viability (Colon cancer organoid [2]; [4]) | Cell Viability (Colon cancer organoid [2]; [5]) | Cell Viability (Colon cancer organoid [2]; [6]) | Cell Viability (Colon cancer organoid [2]; [7]) | Cell Viability (Colon cancer organoid [3]; [4]) | Cell Viability (Colon cancer organoid [3]; [5]) | Cell Viability (Colon cancer organoid [3]; [6]) | Cell Viability (Colon cancer organoid [3]; [7])
COc1cc(N2CCC(O)CC2)ccc1Nc1cc(Nc2ccccc2S(=O)(=O)C(C)C)c2cc[nH]c2n1 | 85.241% | 81.2438% | 122.712% | 109.159% | 73.6565% | 103.778% | 68.2856% | 78.3072% | 108.471% | 84.332% | 70.9146% | 86.2422%
CCc1cccc(CC)c1NC(=O)c1nn(C)c2c1CCc1cnc(Nc3ccc(C(=O)NC4CCN(C)CC4)cc3OC(F)(F)F)nc1-2 | 8.756% | 150.393% | 5.577% | 91.0019% | 20.0347% | 229.301% | 20.3776% | 93.7404% | 94.4005% | 107.437% | 25.0865% | 90.076%
C[C@@H]1CCNC(=O)c2cc3ccc(C(=O)Nc4nc5ccccc5n4CCCN(C)C)cc3n21 | 65.6776% | 63.6239% | 102.952% | 73.3213% | 91.1023% | 83.3009% | 101.537% | 86.0489% | 64.9365% | 147.158% | 51.9591% | 102.286%
COc1cc(C)c(Sc2cnc(NC(=O)c3ccc(CNC(C)C(C)(C)C)cc3)s2)cc1C(=O)N1CCN(C(C)=O)CC1 (stereo not drawn) | 97.8632% | 73.4932% | 75.5351% | 54.8582% | 66.3781% | 81.9892% | 56.9877% | 80.9779% | 92.0383% | 97.5626% | 38.3034% | 78.8109%
O=C(Nc1cccnc1)c1cc(-c2ccnc(F)c2)ccc1OCc1ccccc1 | 87.3368% | 83.1264% | 73.6273% | 99.0368% | 118.198% | 103.257% | 132.36% | 106.667% | 125.655% | 104.766% | 84.3573% | 88.986%
CNc1nc(Nc2cnn([C@H]3CCN(C4COC4)C[C@@H]3F)c2Cl)ncc1C(F)(F)F | 94.4056% | 87.0484% | 128.459% | 108.44% | 116.318% | 104.728% | 169.727% | 102.216% | 199.298% | 86.9942% | 108.189% | 89.737%
CC(C)(O)CNc1ncc(-c2ccnc(Nc3ccnc(Cl)c3)n2)c(CC2CC2)n1 | 30.6205% | 168.017% | 58.1247% | 187.59% | 100.5% | 183.934% | 107.577% | 192.643% | 67.7034% | 172.835% | 40.8339% | 186.893%
CCOc1cc(N2CCC(O)CC2)ccc1Nc1ncc2c(n1)N(C1CCCC1)CCC(=O)N2C | 80.3618% | 151.464% | 49.5621% | 184.932% | 86.8191% | 245.351% | 52.078% | 149.574% | 51.9112% | 144.517% | 36.2832% | 127.288%
Cn1cc(-c2[nH]c3cc(NC(=O)[C@H](N)C4CCCCC4)cc4c3c2C=NNC4=O)cn1 | 9.334% | 180.436% | 3.761% | 107.077% | 1.93% | 159.115% | 4.927% | 82.9355% | 23.152% | 172.741% | 12.2596% | 94.31%
O=C(Nc1ccc(-c2ccnc(Nc3ccc(N4CCOCC4)cc3)n2)cc1)[C@@H]1CCCN1 | 100.254% | 96.014% | 101.806% | 108.082% | 127.595% | 79.807% | 135.011% | 98.0054% | 138.223% | 76.0213% | 82.2702% | 101.459%
CCC(=O)Nc1cccc(Oc2nc(Nc3ccc(N4CCN(C)CC4)cc3OC)ncc2Cl)c1 | 92.8013% | 94.5997% | 65.5336% | 70.4946% | 114.921% | 101.654% | 90.6079% | 93.4216% | 125.445% | 105.023% | 80.3355% | 88.9581%
CC(C)S(=O)(=O)c1ccc2nccc(Nc3ccc4scnc4c3)c2c1 | 84.0973% | 95.5761% | 123.937% | 111.512% | 101.708% | 94.4181% | 92.6068% | 100.536% | 145.741% | 98.2209% | 115.329% | 92.1603%
Cc1cnc(Nc2ccc(F)cc2Cl)nc1-c1c[nH]c(C(=O)N[C@H](CO)c2cccc(Cl)c2)c1 | 51.8597% | 63.6391% | 9.819% | 57.8689% | 10.9302% | 34.4005% | 7.352% | 19.5504% | 6.951% | 113.857% | 5.763% | 41.0342%
CNC(=O)Nc1ccc(-c2nc(N3CC4CCC(C3)O4)c3cnn(C4CCC5(CC4)OCCO5)c3n2)cc1 | 4.885% | 48.532% | 5.396% | 31.9288% | 9.5061% | 63.2179% | 14.6121% | 40.9027% | 5.834% | 97.6391% | 5.978% | 53.3135%
